The values below come from patent publication EP2951180B1, “2,6,7,8 SUBSTITUTED PURINES AS HDM2 INHIBITORS” (Merck Sharp & Dohme Corp., priority 2013, dated 2014).

T1 sequence (Q00987 17-125): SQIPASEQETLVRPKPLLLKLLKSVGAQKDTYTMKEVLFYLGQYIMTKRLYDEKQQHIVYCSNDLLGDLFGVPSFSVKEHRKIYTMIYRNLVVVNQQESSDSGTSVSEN

The first experiment addresses T1, HDM2 (Homo sapiens, UniProt Q00987).
T1 construct: Thioredoxin (N); made in house; host or cells: E. coli strain BL21(DE3)Rosetta
Put plainly: HDM2 FRET assay (inhibition of binding of FITC labeled p53-pocket peptide to HDM2). The note with it: Table 11; read-out: FRET IC50. From the text:
Methods: An HDM2 FRET assay was developed to assess the compounds' inhibitory activity towards binding of p53 protein. […] Protein was purified using Ni-affinity chromatography, followed by size exclusion chromatography using Superdex 75 26/60 column. […] The HDM2 assay buffer contained 1x Phosphate Buffered Saline (Invitrogen, Cat#14190), 0.01% BSA (Jackson ImmunoResearch, Cat# 001-000-162), 0.01% Tween-20. In the 1X assay buffer recombinant HDM2 protein, peptide and Lumi4-Tb Cryptate-conjugate mouse anti-6xHis antibody (cisbio, Cat#Tb61HISTLB) were added and transferred to ProxiPlate PLUS (PerkinElmer, Cat#6008269), containing compounds so that final DMSO concentration is 0.1% . Final concentrations of reagents in the assay wells are 0.5 nM HDM2, 0.25nM anti HIS (Tb label) antibody and 3nM peptide. […] Ratio of em520/em495 was used to calculate %inhibition and to obtain IC50 with 4-parameter logistic equation.
IC50 DETERMINATIONS: Dose-response curves were plotted from the inhibition data, from 10 point serial dilutions of inhibitory compounds. Concentration of compound was plotted against em520/Cem495 ratio signal. To generate IC50 values, the dose-response curves were fitted to a standard sigmoidal curve and IC50 values were derived by nonlinear regression analysis.
Turning to `C[C@@H](Nc1nc(-c2noc(=O)[nH]2)nc2nc(N(C)[C@@H]3CCCC[C@@H]3O)n(C[C@H]3CC[C@H](C)CC3)c12)C1CCC1` (stereo in doubt) [Example 11.132, 3-(6-{[(1R)-1-cyclobutylethyl]amino}-8-{[(1R,2S)-2-hydroxycyclohexyl](methyl)amino}-7-[(trans-4-methylcyclohexyl)methyl]-7H-purin-2-yl)-1,2,4-oxadiazol-5(4H)-one], the concentration for half-maximal inhibition (IC50) worked out at 25.6 nM.

The experiment is the same for the next values; noted with them: Table 21; read-out: FRET IC50.
For `C[C@@H](Nc1nc(C(=O)O)nc2nc(C3COCC3c3ccccc3)n(Cc3ccc(C(F)(F)F)cc3)c12)C1CCC1` (single isomer, unassigned) [Example 21.8], the 50% inhibitory concentration (IC50) amounted to 3.8 nM.
Regarding `CC(c1ccccc1)c1nc2nc(-c3noc(=O)[nH]3)nc(N[C@H](C)C3CCC3)c2n1C[C@H]1CC[C@H](C)CC1` (single isomer, unassigned) [Example 21.14], the 50% inhibitory concentration (IC50) was 19.8 nM.
Regarding `CC(c1ccccc1)c1nc2nc(-c3noc(=O)[nH]3)nc(N[C@H](C)C3CCC3)c2n1C[C@H]1CC[C@H](C)CC1` (single isomer, unassigned) [Example 21.15], the IC50 was 2.04 nM.
The same measure, in the same setting: in the case of `C[C@@H](Nc1nc(-c2noc(=O)[nH]2)nc2nc(C3CCCCC3c3ccccc3)n(C[C@H]3CC[C@H](C)CC3)c12)C1CCC1` (single isomer, unassigned) [Example 21.25] it was 28.9 nM.
On the same count and under the same terms, to `C[C@@H](Nc1nc(-c2noc(=O)[nH]2)nc2nc(C3CCCCC3c3ccccc3)n(C[C@H]3CC[C@H](C)CC3)c12)C1CCC1` (single isomer, unassigned) [Example 21.26] belongs 21.6 nM; to `CC(c1ccccc1F)c1nc2nc(-c3noc(=O)[nH]3)nc(N[C@H](C)C3CCC3)c2n1C[C@H]1CC[C@H](C)CC1` (single isomer, unassigned) [Example 21.35], 2.03 nM; to `CC(c1ccccc1F)c1nc2nc(-c3noc(=O)[nH]3)nc(N[C@H](C)C3CCC3)c2n1C[C@H]1CC[C@H](C)CC1` (single isomer, unassigned) [Example 21.36], 43.1 nM.
On the same count and under the same terms, to `COCC(c1ccccc1)c1nc2nc(-c3noc(=O)[nH]3)nc(N[C@H](C)C3CCC3)c2n1C[C@H]1CC[C@H](C)CC1` (single isomer, unassigned) [Example 21.41, 3-(6-{[(1R)-1-cyclobutylethyl]amino}-8-[(1R or S)-2-methoxy-1-phenylethyl]-7-[(trans-4-methylcyclohexyl)methyl]-7H-purin-2-yl)-1,2,4-oxadiazol-5(4H)-one] belongs 3.25 nM.
As to `COCC(c1ccccc1)c1nc2nc(-c3noc(=O)[nH]3)nc(N[C@H](C)C3CCC3)c2n1C[C@H]1CC[C@H](C)CC1` (single isomer, unassigned) [Example 21.42, 3-(6-{[(1R)-1-cyclobutylethyl]amino}-8-[(1S or R)-2-methoxy-1-phenylethyl]-7-[(trans-4-methylcyclohexyl)methyl]-7H-purin-2-yl)-1,2,4-oxadiazol-5(4H)-one], the IC50 came out at 3.41 nM.

The experiment is the same for the next values; noted with them: Table 22; read-out: FRET IC50.
For `C[C@@H](Nc1nc(-c2noc(=O)[nH]2)nc2nc(C(C)(O)c3ccccn3)n(C[C@H]3CC[C@H](C)CC3)c12)C1CCC1` (single isomer, unassigned) [Example 22.6], the half-inhibitory concentration (IC50) was 10.4 nM.
For `C[C@@H](Nc1nc(-c2noc(=O)[nH]2)nc2nc(C(C)(O)c3ccccn3)n(C[C@H]3CC[C@H](C)CC3)c12)C1CCC1` (single isomer, unassigned) [Example 22.7], the half-maximal inhibitory concentration (IC50) amounted to 19.9 nM.
The same measure, in the same setting: to `C[C@@H](Nc1nc(-c2noc(=O)[nH]2)nc2nc(C(C)(O)C(F)(F)F)n(C[C@H]3CC[C@H](C)CC3)c12)C1CCC1` (single isomer, unassigned) [Example 22.12] belongs 26.7 nM; to `C[C@@H](Nc1nc(-c2noc(=O)[nH]2)nc2nc(C(C)(O)C(F)(F)F)n(C[C@H]3CC[C@H](C)CC3)c12)C1CCC1` (single isomer, unassigned) [Example 22.13], 5.84 nM.
On the same count and under the same terms, in the case of `CC(O)c1nc2nc(-c3noc(=O)[nH]3)nc(N[C@H](C)C3CCC3)c2n1C[C@H]1CC[C@H](C)CC1` (single isomer, unassigned) [Example 22.14] it was 81.1 nM; in that of `CC(O)c1nc2nc(-c3noc(=O)[nH]3)nc(N[C@H](C)C3CCC3)c2n1C[C@H]1CC[C@H](C)CC1` (single isomer, unassigned) [Example 22.15], 45.1 nM.
As for `COC(c1ccccc1)c1nc2nc(-c3noc(=O)[nH]3)nc(N[C@H](C)C3CCC3)c2n1C[C@H]1CC[C@H](C)CC1` (single isomer, unassigned) [Example 22.19, 3-(6-{[(1R)-1-cyclobutylethyl]amino}-8-[(R or S)-methoxy(phenyl)methyl]-7-[(trans-4-methylcyclohexyl)methyl]-7H-purin-2-yl)-1,2,4-oxadiazol-5(4H)-one], the IC50 is 7.7 nM.
In the case of `COC(c1ccccc1)c1nc2nc(-c3noc(=O)[nH]3)nc(N[C@H](C)C3CCC3)c2n1C[C@H]1CC[C@H](C)CC1` (single isomer, unassigned) [Example 22.20, 3-(6-{[(1R)-1-cyclobutylethyl]amino}-8-[(S or R)-methoxy(phenyl)methyl]-7-[(trans-4-methylcyclohexyl)methyl]-7H-purin-2-yl)-1,2,4-oxadiazol-5(4H)-one], the 50% inhibitory concentration (IC50) worked out at 1.5 nM.
Turning to `C[C@@H](Nc1nc(-c2noc(=O)[nH]2)nc2nc(C(C)(O)c3ccccc3)n(C[C@H]3CC[C@H](C)CC3)c12)C1CCC1` (single isomer, unassigned) [Example 22.23], the IC50 worked out at 6.38 nM.
On to `C[C@@H](Nc1nc(-c2noc(=O)[nH]2)nc2nc(C(C)(O)c3ccccc3)n(C[C@H]3CC[C@H](C)CC3)c12)C1CCC1` (single isomer, unassigned) [Example 22.24], for which the IC50 was determined as 33.8 nM.
Same read-out and setting: to `C[C@@H](Nc1nc(-c2noc(=O)[nH]2)nc2nc(C(O)(c3ccccc3)C(F)(F)F)n(C[C@H]3CC[C@H](C)CC3)c12)C1CCC1` (single isomer, unassigned) [Example 22.25] belongs 501 nM; to `C[C@@H](Nc1nc(-c2noc(=O)[nH]2)nc2nc(C(O)(c3ccccc3)C(F)(F)F)n(C[C@H]3CC[C@H](C)CC3)c12)C1CCC1` (single isomer, unassigned) [Example 22.28], 27.3 nM.
The same measure, in the same setting: to `C[C@@H](Nc1nc(-c2noc(=O)[nH]2)nc2nc(C(O)(CO)c3ccccc3)n(C[C@H]3CC[C@H](C)CC3)c12)C1CCC1` (single isomer, unassigned) [Example 22.60] belongs 113 nM; to `C[C@@H](Nc1nc(-c2noc(=O)[nH]2)nc2nc(C(O)(CO)c3ccccc3)n(C[C@H]3CC[C@H](C)CC3)c12)C1CCC1` (single isomer, unassigned) [Example 22.61], 2.8 nM; to `C[C@@H](Nc1nc(-c2noc(=O)[nH]2)nc2nc(C(C)(F)c3ccccc3F)n(C[C@H]3CC[C@H](C)CC3)c12)C1CCC1` (single isomer, unassigned) [Example 22.62], 0.563 nM.
Same read-out and setting: to `C[C@@H](Nc1nc(-c2noc(=O)[nH]2)nc2nc(C(C)(F)c3ccccc3F)n(C[C@H]3CC[C@H](C)CC3)c12)C1CCC1` (single isomer, unassigned) [Example 22.65] belongs 22.6 nM.
As to `Cc1nc(C(C)(F)c2nc3nc(-c4noc(=O)[nH]4)nc(N[C@H](C)C4CCC4)c3n2C[C@H]2CC[C@H](C)CC2)c(C)s1` (single isomer, unassigned) [Example 22.73], the concentration for half-maximal inhibition (IC50) amounted to 4.06 nM.
`Cc1nc(C(C)(F)c2nc3nc(-c4noc(=O)[nH]4)nc(N[C@H](C)C4CCC4)c3n2C[C@H]2CC[C@H](C)CC2)c(C)s1` (single isomer, unassigned) [Example 22.75]: the half-maximal inhibitory concentration (IC50) worked out at 5.48 nM.
Regarding `C[C@@H](Nc1nc(-c2noc(=O)[nH]2)nc2nc(C(C)(F)c3ccccc3)n(C[C@H]3CC[C@H](C)CC3)c12)C1CCC1` (single isomer, unassigned) [Example 22.77], the half-inhibitory concentration (IC50) was determined as 2.95 nM.
Same read-out and setting: to `C[C@@H](Nc1nc(-c2noc(=O)[nH]2)nc2nc(C(C)(F)c3ccccc3)n(C[C@H]3CC[C@H](C)CC3)c12)C1CCC1` (single isomer, unassigned) [Example 22.78] belongs 12.3 nM.

The experiment is the same for the next values; noted with them: Table 23; read-out: FRET IC50.
Regarding `COC(c1ccccc1)c1nc2nc(-c3noc(=O)[nH]3)nc(-c3cccc(Cl)c3)c2n1C[C@H]1CC[C@H](C)CC1` (single isomer, unassigned) [Example 23.44, 3-{6-(3-chlorophenyl)-8-[methoxy(phenyl)methyl]-7-[(trans-4-methylcyclohexyl)methyl] -7H-purin-2-yl}-1,2,4-oxadiazol-5(4H)-one], the concentration for half-maximal inhibition (IC50) stood at 4.53 nM.
Take `COC(C)(c1ccccc1F)c1nc2nc(-c3noc(=O)[nH]3)nc(-c3cncc(Cl)c3)c2n1C[C@H]1CC[C@H](C)CC1` (single isomer, unassigned) [Example 23.49, 3-{6-(5-chloropyridin-3-yl)-8-[1-(2-fluorophenyl)-1-methoxyethyl]-7-[(trans-4-methylcyclohexyl)methyl]-7H-purin-2-yl}-1,2,4-oxadiazol-5(4H)-one]: the IC50 worked out at 0.888 nM.
